Test results from ChEMBL document CHEMBL3217684, “Synthesis and cytotoxicity evaluation of regioisomeric substituted N-phenyl-3-(chrom-4-one-3-yl)-isoxazolidines: induction of apoptosis through a mitochondrial-dependent pathway” (Medchemcomm, 2013).
Activity calls are given as the source filed them. The rule behind the calls is not given here.

Key:
Caco-2 = assay: Cytotoxicity against human Caco2 cells assessed as inhibition of cell proliferation after 48 hrs by sulforhodamine-B assay; type: functional, cell-based; details: Caco-2, 48 h
PC-3 = assay: Cytotoxicity against human PC3 cells assessed as inhibition of cell proliferation after 48 hrs by sulforhodamine-B assay; type: functional, cell-based; details: PC-3, 48 h
THP-1 = assay: Cytotoxicity against human THP1 cells assessed as inhibition of cell proliferation after 48 hrs by sulforhodamine-B assay; type: functional, cell-based; details: THP-1, 48 h
A549 = assay: Cytotoxicity against human A549 cells assessed as inhibition of cell proliferation after 48 hrs by sulforhodamine-B assay; type: functional, cell-based; details: A549, 48 h
HL-60 [1] = assay: Induction of apoptosis in human HL60 cells assessed as mitochondrial damage and loss of mitochondrial membrane potential after 24 hrs by Rhodamine 123 staining based flow cytometry; type: functional, cell-based
HL-60 [2] = assay: Induction of apoptosis in human HL60 cells assessed as intact mitochondrial membrane potential at 10 uM after 24 hrs by Rhodamine 123 staining based flow cytometry (reference value: 93.6%); type: functional
HL-60 [3] = assay: Induction of apoptosis in human HL60 cells assessed as accumulation of DNA at sub-G0 phase at 30 uM after 24 hrs by propidium iodide staining based flow cytometry (Rvb= 4.2%); type: functional
HL-60 [4] = assay: Induction of apoptosis in human HL60 cells assessed as condensation and fragmentation of nuclei at 50 to 100 uM after 24 hrs by DAPI staining based fluorescence microscopic analysis; type: functional, cell-based
HL-60 [5] = assay: Induction of apoptosis in human HL60 cells assessed as accumulation of DNA at sub-G0 phase at 100 uM after 24 hrs by propidium iodide staining based flow cytometry (Rvb= 4.2%); type: functional
HL-60 [6] = assay: Induction of apoptosis in human HL60 cells assessed as loss of mitochondrial membrane potential at 50 uM after 24 hrs by Rhodamine 123 staining based flow cytometry (reference value: 7%); type: functional
HL-60 [7] = assay: Induction of apoptosis in human HL60 cells assessed as accumulation of DNA at sub-G0 phase at 50 uM after 24 hrs by propidium iodide staining based flow cytometry (Rvb= 4.2%); type: functional
HL-60 [8] = assay: Induction of apoptosis in human HL60 cells assessed as DNA fragmentation at 50 uM after 24 hrs by agarose gel electrophoresis analysis; type: functional, cell-based
HL-60 [9] = assay: Induction of apoptosis in human HL60 cells assessed as loss of mitochondrial membrane potential at 30 uM after 24 hrs by Rhodamine 123 staining based flow cytometry (reference value: 7%); type: functional
HL-60 [10] = assay: Induction of apoptosis in human HL60 cells assessed as intact mitochondrial membrane potential at 30 uM after 24 hrs by Rhodamine 123 staining based flow cytometry (reference value: 93.6%); type: functional
HL-60 [11] = assay: Induction of apoptosis in human HL60 cells assessed as loss of mitochondrial membrane potential at 10 uM after 24 hrs by Rhodamine 123 staining based flow cytometry (reference value: 7%); type: functional
HL-60 [12] = assay: Induction of apoptosis in human HL60 cells assessed as accumulation of DNA at sub-G0 phase at 10 uM after 24 hrs by propidium iodide staining based flow cytometry (Rvb= 4.2%); type: functional
HL-60 [13] = assay: Induction of apoptosis in human HL60 cells assessed as intact mitochondrial membrane potential at 50 uM after 24 hrs by Rhodamine 123 staining based flow cytometry (reference value: 93.6%); type: functional
HL-60 [14] = assay: Induction of apoptosis in human HL60 cells assessed as intact mitochondrial membrane potential at 1 uM after 24 hrs by Rhodamine 123 staining based flow cytometry (reference value: 93.6%); type: functional
HL-60 [15] = assay: Induction of apoptosis in human HL60 cells assessed as loss of mitochondrial membrane potential at 1 uM after 24 hrs by Rhodamine 123 staining based flow cytometry (reference value: 7%); type: functional
HL-60 [16] = assay: Induction of apoptosis in human HL60 cells assessed as accumulation of DNA at sub-G0 phase at 1 uM after 24 hrs by propidium iodide staining based flow cytometry (Rvb= 4.2%); type: functional

For `O=c1c([C@@H]2C[C@H](c3ccccc3)ON2c2ccccc2)coc2ccc(F)cc12` (relative stereo), the IC50 (Caco-2) was 60 µM, the IC50 (PC-3) was 49 µM and the IC50 (THP-1) was 54.7 µM. For the same compound, the IC50 (A549) was 51.5 µM.

With `COC(=O)[C@H]1C[C@@H](c2coc3ccccc3c2=O)N(c2ccccc2)O1` (relative stereo) the IC50 (Caco-2) was > 60 µM, the IC50 (PC-3) was > 60 µM and the IC50 (THP-1) was > 60 µM. For the same compound, the IC50 (A549) was > 60 µM.

For `CCO[C@H]1C[C@@H](c2coc3ccc(C)cc3c2=O)N(c2ccccc2)O1` (relative stereo), the IC50 (Caco-2) was 31 µM, the IC50 (PC-3) was 39 µM and the IC50 (THP-1) was 41 µM. It also gave an IC50 (A549) of 20.7 µM.

With `O=C1[C@H]2[C@H](ON(c3ccccc3)[C@@H]2c2coc3ccc(Br)cc3c2=O)C(=O)N1c1ccccc1` (relative stereo) the IC50 (Caco-2) was 20.3 µM, the IC50 (PC-3) was 13.3 µM and the IC50 (THP-1) was 22.3 µM. The IC50 (A549) was 17 µM.

With `N#C[C@H]1C[C@@H](c2coc3ccc(Cl)cc3c2=O)N(c2ccccc2)O1` (relative stereo) the IC50 (Caco-2) was 39 µM, the IC50 (PC-3) was 41 µM and the IC50 (THP-1) was 35 µM. The IC50 (A549) was 40 µM.

With `COC(=O)[C@@]1(C)C[C@@H](c2coc3ccc(C)cc3c2=O)N(c2ccccc2)O1` (relative stereo) the Activity (HL-60 [1]) was “Dose-dependent effect”, the IC50 (Caco-2) was 19.7 µM and the Activity (HL-60 [2]) was 92%. The Activity (HL-60 [3]) was 41.6%, the IC50 (PC-3) was > 60 µM and the Activity (HL-60 [4]) was “Active”. For the same compound, the Activity (HL-60 [5]) was 50.2%, the Activity (HL-60 [6]) was 53.9% and the IC50 (THP-1) was 7.3 µM. For the same compound, the Activity (HL-60 [7]) was 44.6%, the Activity (HL-60 [8]) was “Active” and the IC50 (A549) was 0.7 µM. The Activity (HL-60 [9]) was 36.6%, the Activity (HL-60 [10]) was 62.9% and the Activity (HL-60 [11]) was 7.9%. It also gave an Activity (HL-60 [12]) of 4.9% and an Activity (HL-60 [13]) of 45.7%.

`O=c1c([C@@H]2C[C@H](c3ccccc3)ON2c2ccccc2)coc2cc(Cl)c(Cl)cc12` (relative stereo) was tested, and the IC50 (Caco-2) was 23.5 µM, the IC50 (PC-3) was 32 µM and the IC50 (THP-1) was 38 µM. It also gave an IC50 (A549) of 43 µM.

With `CCO[C@H]1C[C@@H](c2coc3ccccc3c2=O)N(c2ccccc2)O1` (relative stereo) the IC50 (Caco-2) was > 60 µM, the IC50 (PC-3) was > 60 µM and the IC50 (THP-1) was > 60 µM. For the same compound, the IC50 (A549) was > 60 µM.

Compound `COC(=O)[C@@]1(C)C[C@@H](c2coc3ccc(F)cc3c2=O)N(c2ccccc2)O1` (relative stereo) has an IC50 (Caco-2) of 29.5 µM, an IC50 (PC-3) of 31.3 µM and an IC50 (THP-1) of 47 µM. The IC50 (A549) was 20.3 µM.

`O=c1c([C@@H]2C[C@H](c3ccccc3)ON2c2ccccc2)coc2ccccc12` (relative stereo) was tested, and the IC50 (Caco-2) was > 60 µM, the IC50 (PC-3) was > 60 µM and the IC50 (THP-1) was > 60 µM. For the same compound, the IC50 (A549) was > 60 µM.

Work on `O=c1c([C@@H]2C[C@H](c3ccncc3)ON2c2ccccc2)coc2ccccc12` (relative stereo) yielded an IC50 (Caco-2) of 37 µM, an IC50 (PC-3) of 46 µM and an IC50 (THP-1) of 16.4 µM. For the same compound, the IC50 (A549) was 19.3 µM.

For `CCO[C@H]1C[C@@H](c2coc3ccc(Br)cc3c2=O)N(c2ccccc2)O1` (relative stereo), the IC50 (Caco-2) was > 60 µM, the IC50 (PC-3) was > 60 µM and the IC50 (THP-1) was > 60 µM. For the same compound, the IC50 (A549) was 21.5 µM.

For `CO[C@@]12[C@H](COC(N)=O)C3=C(C(=O)C(C)=C(N)C3=O)N1C[C@@H]1N[C@@H]12` [MITOMYCIN], the IC50 (A549) was 0.4 µM.

In the case of `COC(=O)[C@@]1(C)C[C@@H](c2coc3ccc(Br)cc3c2=O)N(c2ccccc2)O1` (relative stereo), the IC50 (Caco-2) is reported as > 60 µM, the IC50 (PC-3) is reported as > 60 µM and the IC50 (THP-1) is reported as 14.7 µM. The IC50 (A549) was 9.9 µM.

With `NC(=O)[C@H]1C[C@@H](c2coc3ccccc3c2=O)N(c2ccccc2)O1` (relative stereo) the IC50 (Caco-2) was > 60 µM, the IC50 (PC-3) was > 60 µM and the IC50 (THP-1) was > 60 µM. The IC50 (A549) was > 60 µM.

In the case of `Cc1ccc2occ([C@@H]3C[C@H](c4ccccc4)ON3c3ccccc3)c(=O)c2c1` (relative stereo), the IC50 (Caco-2) is reported as 31.7 µM, the IC50 (PC-3) is reported as > 60 µM and the IC50 (THP-1) is reported as > 60 µM. It also gave an IC50 (A549) of 49 µM.

`O=c1c([C@@H]2C[C@H](c3ccccc3)ON2c2ccccc2)coc2ccc(Br)cc12` (relative stereo) was tested, and the IC50 (Caco-2) was > 60 µM, the IC50 (PC-3) was 60 µM and the IC50 (THP-1) was 60 µM. It also gave an IC50 (A549) of 51 µM.

In the case of `O=C1[C@H]2[C@H](ON(c3ccccc3)[C@@H]2c2coc3ccc(F)cc3c2=O)C(=O)N1c1ccccc1` (relative stereo), the IC50 (Caco-2) is reported as > 60 µM, the IC50 (PC-3) is reported as > 60 µM and the IC50 (THP-1) is reported as 43.5 µM. For the same compound, the IC50 (A549) was 13.5 µM.

`CCO[C@H]1C[C@@H](c2coc3ccc(F)cc3c2=O)N(c2ccccc2)O1` (relative stereo) was tested, and the IC50 (Caco-2) was > 60 µM, the IC50 (PC-3) was 31.7 µM and the IC50 (THP-1) was > 60 µM. The IC50 (A549) was 26.4 µM.

For `Cc1ccc2occ([C@@H]3C[C@H](OCC(C)C)ON3c3ccccc3)c(=O)c2c1` (relative stereo), the IC50 (Caco-2) was > 60 µM, the IC50 (PC-3) was 37.7 µM and the IC50 (THP-1) was 21.5 µM. The IC50 (A549) was 17.1 µM.

`COC(=O)[C@H]1C[C@@H](c2coc3ccc(Cl)cc3c2=O)N(c2ccccc2)O1` (relative stereo) was tested, and the IC50 (Caco-2) was > 60 µM, the IC50 (PC-3) was > 60 µM and the IC50 (THP-1) was > 60 µM. For the same compound, the IC50 (A549) was > 60 µM.

`CCO[C@H]1C[C@@H](c2coc3cc(Cl)c(Cl)cc3c2=O)N(c2ccccc2)O1` (relative stereo) was tested, and the IC50 (Caco-2) was > 60 µM, the IC50 (PC-3) was > 60 µM and the IC50 (THP-1) was 16.5 µM. It also gave an IC50 (A549) of 19.8 µM.

`Cc1ccc2occ([C@@H]3[C@H]4C(=O)N(c5ccccc5)C(=O)[C@H]4ON3c3ccccc3)c(=O)c2c1` was tested, and the IC50 (Caco-2) was > 60 µM, the IC50 (PC-3) was 11.1 µM and the IC50 (THP-1) was > 60 µM. For the same compound, the IC50 (A549) was > 60 µM.

`CC[C@@]1(O)C(=O)OCc2c1cc1n(c2=O)Cc2cc3ccccc3nc2-1` [CAMPTOTHECIN] showed an Activity (HL-60 [14]) of 46.1%, an Activity (HL-60 [15]) of 53.3% and an Activity (HL-60 [16]) of 61.8%.
